Data: article PMC5676206, “Biosynthesis of methyl-proline containing griselimycins, natural products with anti-tuberculosis activity” (Chemical Science, 2017)

How the values were obtained:
GriF = biological target: T1, GriF (Streptomyces muensis, UniProt A0A0E3URI1); experiment: LC-MS of product; assay type: biochemical; conditions: NAD+, ZnSO4; product cyclizes to the pyrroline
T1 construct: recombinant, produced in E. coli
T1 sequence (A0A0E3URI1 1-391): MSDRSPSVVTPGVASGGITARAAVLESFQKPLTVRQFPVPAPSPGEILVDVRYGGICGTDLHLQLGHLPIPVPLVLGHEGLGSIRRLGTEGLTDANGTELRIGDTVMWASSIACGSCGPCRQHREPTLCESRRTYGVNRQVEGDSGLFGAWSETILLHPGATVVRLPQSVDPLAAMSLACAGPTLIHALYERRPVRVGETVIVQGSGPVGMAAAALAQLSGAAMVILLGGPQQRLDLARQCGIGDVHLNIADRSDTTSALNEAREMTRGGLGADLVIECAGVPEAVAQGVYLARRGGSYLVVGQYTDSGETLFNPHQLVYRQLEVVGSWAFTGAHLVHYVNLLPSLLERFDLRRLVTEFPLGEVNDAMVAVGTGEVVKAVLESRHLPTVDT

GriE = biological target: T2, GriE (Streptomyces muensis, UniProt A0A0E3URV8); experiment: X-ray crystallography; assay type: binding
T2 construct: recombinant, produced in E. coli
T2 sequence (A0A0E3URV8 1-270): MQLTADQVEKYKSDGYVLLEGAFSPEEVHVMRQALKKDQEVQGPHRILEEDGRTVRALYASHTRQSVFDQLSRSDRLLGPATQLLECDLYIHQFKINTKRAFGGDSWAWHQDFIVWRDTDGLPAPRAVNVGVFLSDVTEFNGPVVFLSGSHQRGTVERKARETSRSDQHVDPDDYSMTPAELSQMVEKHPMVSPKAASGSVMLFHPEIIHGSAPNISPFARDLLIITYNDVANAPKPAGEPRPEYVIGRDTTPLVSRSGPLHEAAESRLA

[1] = co-crystallized with Mn2+, L-leucine and alpha-ketoglutarate, turned over in the crystal set-up, 1.53 Å

Compound	LC-MS of product (GriF)	X-ray crystallography (GriE; [1])	X-ray crystallography (GriE; co-crystallized with Co2+ in place of Fe2+ and alpha-ketoglutarate, 1.76 Å, active site, no direct metal contact)
C[C@@H](CO)C[C@H](N)C(=O)O [(2S,4R)-5-hydroxyleucine]	incubation of recombinant GriF with 5-hydroxyleucine, ZnSO4 and NAD^+ was unstable	electron density clearly confirms 5-hydroxyleucine to be the postulated (2S,4R)-diastereomer	–
O=C(O)CCC(=O)O [succinate]	–	succinate coordinates the metal with one carboxylate oxygen	–
CC(C)C[C@H](N)C(=O)O [L-leucine]	–	–	unambiguously revealed bound metal and both L-leucine and α-ketoglutarate
